From publication PMC11802874, “The hypolipidemic effect of MI-883, the combined CAR agonist/ PXR antagonist, in diet-induced hypercholesterolemia model” (Nature Communications, 2025)
Marks after values point to notes of the source that are not given here.

Assay: Pharmacokinetic study after single dose in C57BL/6N mice
Assay type: in vivo, mouse
Procedure: Pharmacokinetic study of MI-883 in C57BL/6N mice (9–10 weeks old, body weight 20.8 to 24.5 g and average body weight across all groups 22.7 g, SD = 1.1 g) were performed following peroral (p.o.) and intraperitoneal (i.p.) administrations. […] There was also a control group of 4 animals per route. The levels of the parent compound MI-883 were determined by LC-MS/MS in the blood plasma, brain, kidney, liver, muscle (Leg triceps), bile, small intestine, colon, and adipose tissues over time after a single dose of 10 mg/kg. Mice were injected i.p. with 2,2,2-tribromoethanol at a dose of 150 mg/kg prior to drawing the blood. Blood collection was performed from the orbital sinus in BD microtainers tubes containing K2EDTA. Animals were sacrificed by cervical dislocation after the blood samples collection. After this, samples of brain, kidney, liver, muscle (Leg triceps), small intestine, colon, and adipose tissue were collected. Bile samples were taken from the gallbladder of mice. Urine and feces samples were collected using metabolic cages over the course of 1440 min (24 h) after compound administration. All samples were immediately processed, flash-frozen, and stored at –70 °C until subsequent analysis. Detection of the presence of potential metabolites (2-chloro-5-((4-(2-(4-chlorophenyl)-7-fluoroimidazo[1,2-a]pyridin-3-yl)-1H-1,2,3-triazol-1-yl)methyl)-N-methylbenzamide or 2-(4-chlorophenyl)-7-fluoro-3-(1H-1,2,3-triazol-4-yl)imidazo[1,2-a]pyridine) in plasma and tissues was performed. MI-883 was applied in 5%DMSO – 5%PEG300 – 90%corn oil formulation with a final concentration of the compound, 2 mg/ml. Animal treatment and sample preparation were conducted by the Animal Laboratory personnel at Enamine/Bienta.
Plasma samples (50 μl) were mixed with 200 μl of IS400 solution. After mixing by pipetting and centrifuging for 4 min at 6000 rpm, 2 μl of each supernatant was injected into the LC-MS/MS system. Solution of compound IS-19851 (400 ng/ml in acetonitrile-methanol mixture 1:1, v/v) was used as internal standard (IS400) for quantification of MI-883 in blood plasma, liver, kidney, muscle (Leg triceps), small intestine, and colon samples. Liver, kidney, muscle (Leg triceps), colon, and small intestine samples (weight 100 mg ±1 mg) were disintegrated in 500 μl of IS400 using zirconium oxide beads (120 mg ± 5 mg) in The Bullet Blender® homogenizer for 1–3 min at speed 8–12. After this, the samples were centrifuged for 3 min at 14,000 rpm, and 1 μl of each supernatant was injected into the LC-MS/MS system.
Brain and adipose tissue samples (weight 100 mg ± 1 mg) were dispersed in 500 μl of IS400(80) using zirconium oxide beads (120 mg ± 5 mg) in The Bullet Blender® homogenizer for 30 s at speed 8. After this, the samples were centrifuged for 4 min at 14,000 rpm, and 1 μl of each supernatant was injected into the LC-MS/MS system. Solution of compound IS-19851 (400 ng/ml in water-acetonitrile-methanol mixture, 2:4:4, v/v/v) was used as internal standard (IS400(80)) for quantification of MI-883 in the brain, adipose tissue, urine, and bile samples. Urine (cumulative) and bile samples were mixed with IS400(80) solution (1:20, v/v). After mixing by pipetting and centrifuging for 4 min at 6000 rpm, 0.5 μl of each supernatant was injected into the LC-MS/MS system. Cumulative feces samples (114 mg–249 mg) were transferred to BMT-20-S tubes with 4 stainless steel balls, mixed with 20 volumes of IS400(80) solution, and dispersed using ULTRA-TURRAX Tube Drive for 1 min at 3000 rpm within the 30 min thrice. After dispersing and centrifuging for 2 min at 14,000 rpm, 0.5 μl of each supernatant was injected into the LC-MS/MS system.
The concentration of MI-883 in plasma and tissues was determined using a high-performance liquid chromatography/tandem mass spectrometry (HPLC-MS/MS) method. […]

[1] = male, C57BL/6N, mouse, ip, Liver, 10 mg/kg
[2] = male, C57BL/6N, mouse, po, Liver, 10 mg/kg
[3] = male, C57BL/6N, mouse, po, Plasma, 10 mg/kg

## NC(=O)c1cc(Cn2cc(-c3c(-c4ccc(Cl)cc4)nc4cc(F)ccn34)nn2)ccc1Cl [MI-883, 2-chloro-5-((4-(2-(4-chlorophenyl)-7-fluoroimidazo[1,2-a]pyridin-3-yl)-1H-1,2,3-triazol-1-yl)methyl)benzamide]
10 mg/kg p.o. and i.p.
  expected metabolites (N-methyl, N-dimethyl benzamide, triazolyl-imidazopyridine) in plasma and tissues: No expected metabolites
10 mg/kg, C57BL/6N mice
  route of excretion: excreted mainly via bile
  tissue distribution: significantly distributed into the liver, but not the brain
Estimation based on comparison of AUCs after p.o. and i.p. application, 10 mg/kg
  Peroral bioavailability (%, p.o. vs. i.p.): 98.6* %
i.p., time 10
  PK of MI-883: MI-883 i.p. adipose tis.: 2064
  PK of MI-883: MI-883 i.p. bile: 347
  PK of MI-883: MI-883 i.p. brain: 20
  PK of MI-883: MI-883 i.p. colon: 7473
  PK of MI-883: MI-883 i.p. kidney: 1650
  PK of MI-883: MI-883 i.p. liver: 9584
  PK of MI-883: MI-883 i.p. muscule: 114
  PK of MI-883: MI-883 i.p. small intestine: 10141
  PK of MI-883: MI-883 i.p: 565
i.p., time 120
  PK of MI-883: MI-883 i.p. adipose tis.: 2083
  PK of MI-883: MI-883 i.p. bile: 5663
  PK of MI-883: MI-883 i.p. brain: 88
  PK of MI-883: MI-883 i.p. colon: 3182
  PK of MI-883: MI-883 i.p. kidney: 4299
  PK of MI-883: MI-883 i.p. liver: 14064
  PK of MI-883: MI-883 i.p. muscule: 913
  PK of MI-883: MI-883 i.p. small intestine: 7374
  PK of MI-883: MI-883 i.p: 5532
i.p., time 240
  PK of MI-883: MI-883 i.p. adipose tis.: 2267
  PK of MI-883: MI-883 i.p. bile: 6712
  PK of MI-883: MI-883 i.p. brain: 86
  PK of MI-883: MI-883 i.p. colon: 3492
  PK of MI-883: MI-883 i.p. kidney: 6585
  PK of MI-883: MI-883 i.p. liver: 10374
  PK of MI-883: MI-883 i.p. muscule: 720
  PK of MI-883: MI-883 i.p. small intestine: 4886
  PK of MI-883: MI-883 i.p: 3130
i.p., time 480
  PK of MI-883: MI-883 i.p. adipose tis.: 1643
  PK of MI-883: MI-883 i.p. bile: 17332
  PK of MI-883: MI-883 i.p. brain: 62
  PK of MI-883: MI-883 i.p. colon: 1531
  PK of MI-883: MI-883 i.p. kidney: 3365
  PK of MI-883: MI-883 i.p. liver: 6478
  PK of MI-883: MI-883 i.p. muscule: 687
  PK of MI-883: MI-883 i.p. small intestine: 1858
  PK of MI-883: MI-883 i.p: 2314
i.p., time 720
  PK of MI-883: MI-883 i.p. adipose tis.: 651
  PK of MI-883: MI-883 i.p. bile: 20058
  PK of MI-883: MI-883 i.p. brain: 33
  PK of MI-883: MI-883 i.p. colon: 1717
  PK of MI-883: MI-883 i.p. kidney: 1611
  PK of MI-883: MI-883 i.p. liver: 4261
  PK of MI-883: MI-883 i.p. muscule: 320
  PK of MI-883: MI-883 i.p. small intestine: 873
  PK of MI-883: MI-883 i.p: 1008
i.p., feces, time 1440
  PK of MI-883: MI-883 i.p. feces: 689 ng
i.p., time 1440
  PK of MI-883: MI-883 i.p. kidney: 11
  PK of MI-883: MI-883 i.p. liver: 24
  PK of MI-883: MI-883 i.p: 1
[1]
  Cmax: 14100 ng/mL
  Tmax: 30 min
  half-life: 152 min
male, C57BL/6N, mouse, ip, Plasma, 10 mg/kg
  Cmax: 5530 ng/mL
male, C57BL/6N, mouse, plasma, 10 mg/kg, calculated from data after a single dose application, read-out: volume of distribution (Vd) in mice
  Vd: 0.06 L
[2]
  Cmax: 14900 ng/mL
  Tmax: 30 min
  half-life: 211 min
[3]
  Cmax: 9290 ng/mL
  Tmax: 30 min
  half-life: 170 min
male, mouse, ip, Plasma, 10 mg/kg, C57BL/6N mice
  Tmax: 30 min
p.o., time 10
  PK of MI-883: MI-883 p.o. adipose tis.: 211
  PK of MI-883: MI-883 p.o. bile: 560
  PK of MI-883: MI-883 p.o. brain: 8
  PK of MI-883: MI-883 p.o. colon: 2929
  PK of MI-883: MI-883 p.o. kidney: 573
  PK of MI-883: MI-883 p.o. liver: 1972
  PK of MI-883: MI-883 p.o. muscule: 98
  PK of MI-883: MI-883 p.o. small int.: 5277
  PK of MI-883: MI-883 p.o.: 440
p.o., time 120
  PK of MI-883: MI-883 p.o. adipose tis.: 5811
  PK of MI-883: MI-883 p.o. bile: 5663
  PK of MI-883: MI-883 p.o. brain: 300
  PK of MI-883: MI-883 p.o. colon: 4345
  PK of MI-883: MI-883 p.o. kidney: 9000
  PK of MI-883: MI-883 p.o. liver: 14919
  PK of MI-883: MI-883 p.o. muscule: 2725
  PK of MI-883: MI-883 p.o. small int.: 9143
  PK of MI-883: MI-883 p.o.: 9288
p.o., time 240
  PK of MI-883: MI-883 p.o. adipose tis.: 980
  PK of MI-883: MI-883 p.o. bile: 9638
  PK of MI-883: MI-883 p.o. brain: 45
  PK of MI-883: MI-883 p.o. colon: 1191
  PK of MI-883: MI-883 p.o. kidney: 2409
  PK of MI-883: MI-883 p.o. liver: 5297
  PK of MI-883: MI-883 p.o. muscule: 421
  PK of MI-883: MI-883 p.o. small int.: 2579
  PK of MI-883: MI-883 p.o.: 1645
p.o., time 480
  PK of MI-883: MI-883 p.o. adipose tis.: 1023
  PK of MI-883: MI-883 p.o. bile: 9739
  PK of MI-883: MI-883 p.o. colon: 1428
  PK of MI-883: MI-883 p.o. kidney: 2347
  PK of MI-883: MI-883 p.o. liver: 5137
  PK of MI-883: MI-883 p.o. muscule: 488
  PK of MI-883: MI-883 p.o. small int.: 1398
  PK of MI-883: MI-883 p.o.: 1502
p.o., time 720
  PK of MI-883: MI-883 p.o. adipose tis.: 1016
  PK of MI-883: MI-883 p.o. bile: 23456
  PK of MI-883: MI-883 p.o. brain: 55
  PK of MI-883: MI-883 p.o. colon: 1386
  PK of MI-883: MI-883 p.o. kidney: 2408
  PK of MI-883: MI-883 p.o. liver: 5549
  PK of MI-883: MI-883 p.o. muscule: 543
  PK of MI-883: MI-883 p.o. small int.: 2156
  PK of MI-883: MI-883 p.o.: 1788
p.o., time 1440
  PK of MI-883: MI-883 p.o. adipose tis.: 8
  PK of MI-883: MI-883 p.o. bile: 192
  PK of MI-883: MI-883 p.o. colon: 15
  PK of MI-883: MI-883 p.o. kidney: 40
  PK of MI-883: MI-883 p.o. liver: 102
  PK of MI-883: MI-883 p.o. small int.: 21
  PK of MI-883: MI-883 p.o.: 15
p.o., feces, time 1440
  PK of MI-883: MI-883 p.o. feces: 174 ng
Single dose of 10 mg/kg
  time with liver concentration above 1000 ng/g: more than 18 hours
Single dose of 10 mg/kg p.o., male C57BL/6N mice
  concentration in the liver lysate: greater than 1000 ng/g
